Experimental data as given in PubChem BioAssay (NCI).
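96-well plates; 48 h exposure; 5 concentrations. Endpoints by linear interpolation between flanking doses. Not reached: highest tested concentration assigned. TGI: concentration producing complete growth inhibition.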

Columns and labels:
Test in all cases: inhibition of tumour cell growth, NCI panel, 48 h
[1] = test system: 786-0 renal
[2] = test system: A498 renal
[3] = test system: A549 NSCLC
[4] = test system: ACHN renal
[5] = test system: BT-549 breast
[6] = test system: CAKI-1 renal
[7] = test system: CCRF-CEM leukemia
[8] = test system: COLO 205 colon
[9] = test system: DU-145 prostate
[10] = test system: EKVX NSCLC
[11] = test system: HCC-2998 colon
[12] = test system: HCT-116 colon
[13] = test system: HCT-15 colon
[14] = test system: HL-60(TB) leukemia
[15] = test system: HOP-62 NSCLC
[16] = test system: HOP-92 NSCLC
[17] = test system: HT29 colon
[18] = test system: IGROV1 ovarian
[19] = test system: K-562 leukemia
[20] = test system: KM12 colon
[21] = test system: LOX IMVI melanoma
[22] = test system: M14 melanoma
[23] = test system: MALME-3M melanoma
[24] = test system: MCF7 breast
[25] = test system: MDA-MB-231 breast
[26] = test system: MDA-MB-435
[27] = test system: MDA-N
[28] = test system: MOLT-4 leukemia
[29] = test system: NCI-H226 lung
[30] = test system: NCI-H23 lung
[31] = test system: NCI-H460 lung
[32] = test system: NCI-H522 lung
[33] = test system: NCI/ADR-RES ovarian
[34] = test system: OVCAR-3 ovarian
[35] = test system: OVCAR-4 ovarian
[36] = test system: OVCAR-5 ovarian
[37] = test system: OVCAR-8 ovarian
[38] = test system: PC-3 prostate
[39] = test system: RPMI-8226 leukemia
[40] = test system: RXF 393 renal
[41] = test system: SF-295 CNS
[42] = test system: SF-539 CNS
[43] = test system: SK-MEL-2 melanoma
[44] = test system: SK-MEL-28 melanoma
[45] = test system: SK-MEL-5 melanoma
[46] = test system: SN12C renal
[47] = test system: SNB-19 CNS
[48] = test system: SNB-75 CNS
[49] = test system: SR leukemia
[50] = test system: SW-620 colon
[51] = test system: U251 CNS
[52] = test system: UACC-257 melanoma
[53] = test system: UACC-62 melanoma
[54] = test system: UO-31 renal
[55] = test system: SF-268 CNS
[56] = test system: SK-OV-3 ovarian
[57] = test system: T-47D breast
[58] = test system: TK-10 renal

CSc1nc2c(c(=O)n1C)N=C(c1ccccc1)[C@H](C(CC(=O)c1ccccc1)c1ccccc1)C(c1ccccc1)N2 (some centres not stated)
TGI [1]: > 100 µM
TGI [2]: > 100 µM
TGI [3]: > 100 µM
TGI [4]: > 100 µM
TGI [5]: > 100 µM
TGI [6]: > 100 µM
TGI [7]: > 100 µM
TGI [8]: > 100 µM
TGI [9]: > 100 µM
TGI [10]: > 100 µM
TGI [11]: > 100 µM
TGI [12]: > 100 µM
TGI [13]: > 100 µM
TGI [14]: > 100 µM
TGI [15]: > 100 µM
TGI [16]: > 100 µM
TGI [17]: > 100 µM
TGI [18]: > 100 µM
TGI [19]: > 100 µM
TGI [20]: > 100 µM
TGI [21]: > 100 µM
TGI [22]: > 100 µM
TGI [23]: > 100 µM
TGI [24]: > 100 µM
TGI [25]: > 100 µM
TGI [26]: > 100 µM
TGI [27]: > 100 µM
TGI [28]: > 100 µM
TGI [29]: > 100 µM
TGI [30]: > 100 µM
TGI [31]: > 100 µM
TGI [32]: > 100 µM
TGI [33]: > 100 µM
TGI [34]: > 100 µM
TGI [35]: > 100 µM
TGI [36]: > 100 µM
TGI [37]: > 100 µM
TGI [38]: > 100 µM
TGI [39]: > 100 µM
TGI [40]: > 100 µM
TGI [41]: > 100 µM
TGI [42]: > 100 µM
TGI [43]: > 100 µM
TGI [44]: > 100 µM
TGI [45]: > 100 µM
TGI [46]: > 100 µM
TGI [47]: > 100 µM
TGI [48]: > 100 µM
TGI [49]: > 100 µM
TGI [50]: > 100 µM
TGI [51]: > 100 µM
TGI [52]: > 100 µM
TGI [53]: > 100 µM
TGI [54]: > 100 µM

COc1ccc(Nc2nc3c([nH]2)c(=O)n(C)c(=O)n3C)cc1
TGI [1]: > 10 µM
TGI [3]: > 10 µM
TGI [6]: > 10 µM
TGI [7]: > 10 µM
TGI [8]: > 10 µM
TGI [9]: > 10 µM
TGI [10]: > 10 µM
TGI [11]: > 10 µM
TGI [13]: > 10 µM
TGI [14]: > 10 µM
TGI [15]: > 10 µM
TGI [16]: > 10 µM
TGI [17]: > 10 µM
TGI [18]: > 10 µM
TGI [19]: > 10 µM
TGI [20]: > 10 µM
TGI [21]: > 10 µM
TGI [22]: > 10 µM
TGI [23]: > 10 µM
TGI [24]: > 10 µM
TGI [25]: > 10 µM
TGI [26]: > 10 µM
TGI [27]: > 10 µM
TGI [28]: > 10 µM
TGI [30]: > 10 µM
TGI [35]: > 10 µM
TGI [37]: > 10 µM
TGI [38]: > 10 µM
TGI [39]: > 10 µM
TGI [40]: > 10 µM
TGI [55]: > 10 µM
TGI [41]: > 10 µM
TGI [44]: > 10 µM
TGI [45]: > 10 µM
TGI [56]: > 10 µM
TGI [46]: > 10 µM
TGI [48]: > 10 µM
TGI [49]: > 10 µM
TGI [50]: > 10 µM
TGI [57]: > 10 µM
TGI [58]: > 10 µM
TGI [52]: > 10 µM
TGI [53]: > 10 µM

CN1C(=O)C2(Cc3cn(C45CC67SSC(CO)(C(=O)N6C4Nc4ccccc45)N(C)C7=O)c4ccccc34)SSC1(CO)C(=O)N2C (configuration not stated)
TGI [1]: 0.0283 µM
TGI [4]: 0.0776 µM
TGI [7]: > 100 µM
TGI [9]: 0.173 µM
TGI [10]: 0.166 µM
TGI [11]: 0.136 µM
TGI [12]: 0.115 µM
TGI [14]: > 100 µM
TGI [15]: 0.277 µM
TGI [16]: 0.771 µM
TGI [17]: 0.0164 µM
TGI [18]: 0.107 µM
TGI [19]: > 100 µM
TGI [20]: 0.577 µM
TGI [22]: 0.0298 µM
TGI [24]: 0.259 µM
TGI [25]: 0.0494 µM
TGI [27]: 0.0661 µM
TGI [28]: 1.08 µM
TGI [31]: 0.778 µM
TGI [32]: 0.0137 µM
TGI [34]: 0.215 µM
TGI [35]: 0.0234 µM
TGI [36]: 0.289 µM
TGI [37]: 0.202 µM
TGI [38]: 0.214 µM
TGI [39]: > 100 µM
TGI [55]: 0.265 µM
TGI [41]: 1.34 µM
TGI [42]: 0.0738 µM
TGI [43]: 0.288 µM
TGI [44]: 0.505 µM
TGI [56]: 1.56 µM
TGI [46]: 0.0696 µM
TGI [48]: 0.345 µM
TGI [50]: > 100 µM
TGI [58]: 0.103 µM
TGI [52]: 1.13 µM
TGI [53]: 0.324 µM
TGI [54]: 0.179 µM

Nc1c(C(=O)c2ccc(Cl)cc2)[nH]c(NCc2ccccc2)c1C(=S)Nc1ccccc1
TGI [1]: 3.14 µM
TGI [2]: 23 µM
TGI [3]: 4.87 µM
TGI [4]: 4.71 µM
TGI [5]: 7.06 µM
TGI [6]: 18.6 µM
TGI [7]: 5.54 µM
TGI [8]: 26.2 µM
TGI [9]: 13.1 µM
TGI [10]: 20.1 µM
TGI [11]: 1.98 µM
TGI [12]: 3.31 µM
TGI [13]: 3.36 µM
TGI [14]: 14 µM
TGI [15]: 12.9 µM
TGI [16]: 9.02 µM
TGI [17]: 3.7 µM
TGI [18]: 6.43 µM
TGI [19]: 4.04 µM
TGI [20]: 3.24 µM
TGI [21]: 3.19 µM
TGI [22]: 3.54 µM
TGI [24]: 3.08 µM
TGI [25]: 3.91 µM
TGI [26]: 3.14 µM
TGI [27]: 3.32 µM
TGI [28]: 6.49 µM
TGI [29]: 27.2 µM
TGI [30]: 5.95 µM
TGI [31]: 3.49 µM
TGI [32]: 3.38 µM
TGI [33]: 24.2 µM
TGI [34]: 20.2 µM
TGI [35]: 4.15 µM
TGI [36]: 9.16 µM
TGI [37]: 3.37 µM
TGI [38]: 18.4 µM
TGI [39]: 4.34 µM
TGI [40]: 4.16 µM
TGI [55]: 8.44 µM
TGI [41]: 3.32 µM
TGI [42]: 13.8 µM
TGI [43]: 3.58 µM
TGI [44]: 3.22 µM
TGI [56]: 49.8 µM
TGI [46]: 17 µM
TGI [47]: 15.1 µM
TGI [48]: 3.33 µM
TGI [50]: 3.63 µM
TGI [57]: 65.1 µM
TGI [58]: 4.25 µM
TGI [51]: 3.13 µM
TGI [52]: 3.26 µM
TGI [53]: 21 µM
TGI [54]: 3.02 µM
